According to US10433548B2, “Biocidal compositions comprising iron chelators” (Arch Chemicals, Inc., priority 2012, dated 2019):

Tests used:
Assay type in all cases: cell-based
[1] = system: C. pyrenoidosa; test: Minimum Inhibitory Concentration (MIC) test, 96-well microtiter plate; set-up: unit not given here
[2] = system: R. subcapitata; test: as above; set-up: unit not given here
[3] = system: E. coli; test: as above; details: Active ZPT alone or plus chelator or chelator + Zn(II); Molar Ratio HBED 10×, 8-HQ 5×, 8-HQ + Zn(II) 1×, 2-HPNO 10×
Procedure: (§1) Activities of antimicrobial compositions of the present invention were tested against a range of typical skin microorganisms in a Minimum Inhibitory Concentration (MIC) test. MICs for the organisms were determined in a standard 96-well microtiter plate assay in Brain Heart Infusion Broth (BHI) for P. acnes; Tryptic Soy Broth (TSB) for the remaining bacteria; Ushijima Broth for M. furfur; Sabouraud Dextrose Broth (SDB) for other fungi. Samples were tested in duplicate on separate plates. For bacteria and fungi plates, samples were serially diluted into double strength media on the microtiter plates. The bacterial or fungal inocula, suspended in sterile deionized water, were then added to the wells in 1:1 ratio to the medium. The final concentration of bacteria in the wells was 5×10^5 CFUs/mL, the final concentration of fungi was 5×10^4 cells or spores/mL. Plates were incubated: anaerobically at 35° C. for 7 days for P. acnes; aerobically at 35° C. for 2 days for the remaining bacteria and aerobically at 35° C. for 7 days for M. furfur; aerobically at 28° C. for 7 days for T. mentagrophytes.

[4] = system: P. aeruginosa; test: as above; set-up: unit not given here
Procedure: as §1

[5] = system: A. brasiliensis; test: as above; set-up: unit not given here
Procedure: as §1

[6] = system: T. mentagrophytes; test: as above; set-up: unit not given here
Procedure: as §1

[7] = system: S. epidermidis; test: as above; set-up: unit not given here
Procedure: as §1

[8] = system: M. furfur; test: as above; set-up: unit not given here
Procedure: as §1

[9] = system: C. albicans; test: as above; set-up: unit not given here
Procedure: as §1

[10] = system: P. faveolarum; test: as above; set-up: unit not given here
Procedure: as §1

[11] = system: B. subtilis; test: as above; set-up: unit not given here
Procedure: as §1

[12] = system: S. aureus; test: as above; set-up: unit not given here
Procedure: as §1

[13] = system: A. pullulans; test: as above; set-up: unit not given here
Procedure: as §1

[14] = system: E. hirae; test: as above; set-up: unit not given here
Procedure: as §1

[15] = system: S. aureus; test: Time-kill test (microbial reduction); details: from initial microbial population
Procedure: (§2) Time-kill test were performed to assess microbial reduction by antimicrobial agents, with and without chelators, against S. aureus, P. aeruginosa, and E. coli.
(§3) 100 μL of sample and 100 μL of bacterial suspension at 5×10^5 cells/mL was loaded into the first well of each row in a 96-well plate, mixed and after specific contact time, 10-fold serial dilutions were made using a multichannel pipette by transferring 20 μL into 180 μL of Letheen broth, mixing 10 times. The process was repeated. Thereafter, three replicates of 10 μL from each of the six selected dilutions were plated onto Tryptic Soy Agar using a 2-20 μL monochannel pipette. Plates were allowed to dry, then placed into an incubator at 35° C. for 24 hrs. Colonies (0.5-1 mm) were enumerated using a colony counter.

[16] = system: P. aeruginosa; test: Time-kill test (microbial reduction); details: for log reduction: from initial microbial population
Procedure: as §2, §3

[17] = system: E. coli; test: Time-kill test (microbial reduction); details: E. coil; for log reduction: from initial microbial population
Procedure: as §2, §3

[18] = concentration of ZPT, ZPT alone or with potentiator, Molar Eq (Pot:ZPT) 10:1, 8-HQ-Zn 1:1
[19] = Active ZPT alone or plus chelator or chelator + Zn(II), Molar Ratio HBED 10×, 8-HQ 5×, 8-HQ + Zn(II) 1×, 2-HPNO 10×
[20] = concentration of BBIT, BBIT alone or with potentiator, Molar Eq (Pot:BBIT) 10:1
[21] = concentration of BIT, BIT alone or with potentiator, Molar Eq (Pot:BIT) 10:1
[22] = concentration of IPBC, IPBC alone or with potentiator, Molar Eq (Pot:IPBC) 10:1
[23] = concentration of Propiconazole, alone or with potentiator, Molar Eq (Pot:PROP) 10:1

## O=C(O)CN(CCN(CC(=O)O)Cc1ccccc1O)Cc1ccccc1O.[Zn] [HBED-Zn]
[1]; [18]
  MIC C. pyrenoidsa: 0.98
[2]; [18]
  MIC R. subcapitata: 0.49
[3]
  MIC E. Coli: 3.91
[4]; [19]
  MIC P. aeruginosa: 15.63
[4]; [18]
  MIC P. aeruginosa: 15.63
[5]; [18]
  MIC A. brasiliensis: 7.81
[6]; [19]
  MIC T. mentagrophytes: 1.46
[6]; [18]
  MIC T. mentagrophytes: 1.46
[7]; [19]
  MIC S. epidermidis: 3.91
[7]; [18]
  MIC S. epidermidis: 3.91
[8]; [19]
  MIC M. furfur: 0.98
[8]; [18]
  MIC M. furfur: 0.98
[9]; [18]
  MIC C. albicans: 3.91
[10]; [18]
  MIC P. faveolarum: 0.24
[11]; [18]
  MIC B. subtilis: 1.95

## O=c1cccccc1[O-].O=c1cccccc1[O-].[Zn+2] [Tropolone-Zn, zinc(tropolone)2]
[1]; [20]
  MIC C. pyrenoidsa: 1.25
[1]; [21]
  MIC C. pyrenoidsa: 0.76
[1]; [22]
  MIC C. pyrenoidsa: 0.51
[1]; [23]
  MIC C. pyrenoidsa: 2.58
[1]; [18]
  MIC C. pyrenoidsa: 0.98
[2]; [20]
  MIC R. subcapitata: 0.94
[2]; [21]
  MIC R. subcapitata: 1.02
[2]; [22]
  MIC R. subcapitata: 0.51
[2]; [23]
  MIC R. subcapitata: 1.29
[2]; [18]
  MIC R. subcapitata: 0.49
[12]; [22]
  MIC S. aureus: 0.51
[12]; [23]
  MIC S. aureus: 0.64
[13]; [20]
  MIC A. pullulans: 0.31
[13]; [21]
  MIC A. pullulans: 0.24
[4]; [20]
  MIC P. aeruginosa: 20.00
[4]; [21]
  MIC P. aeruginosa: 8.13
[4]; [22]
  MIC P. aeruginosa: 32.5
[4]; [23]
  MIC P. aeruginosa: 41.25
[4]; [18]
  MIC P. aeruginosa: 15.63
[5]; [20]
  MIC A. brasiliensis: 0.94
[5]; [21]
  MIC A. brasiliensis: 1.02
[5]; [18]
  MIC A. brasiliensis: 1.95
[6]; [18]
  MIC T. mentagrophytes: 0.18
[7]; [18]
  MIC S. epidermidis: 0.18
[8]; [18]
  MIC M. furfur: 0.73
[9]; [22]
  MIC C. albicans: 1.02
[9]; [23]
  MIC C. albicans: 0.97
[9]; [18]
  MIC C. albicans: 0.73
[10]; [20]
  MIC P. faveolarum: 0.23
[10]; [21]
  MIC P. faveolarum: 0.19
[10]; [22]
  MIC P. faveolarum: 0.38
[10]; [23]
  MIC P. faveolarum: 0.32
[10]; [18]
  MIC P. faveolarum: 0.05
[11]; [20]
  MIC B. subtilis: 0.31
[11]; [21]
  MIC B. subtilis: 0.13
[11]; [22]
  MIC B. subtilis: 0.51
[11]; [23]
  MIC B. subtilis: 0.64
[11]; [18]
  MIC B. subtilis: 0.24
[14]; [22]
  MIC E. hirae: 0.25
[14]; [23]
  MIC E. hirae: 0.32

## zinc dihydroxyacetate [DHA-Zn]
[1]; [21]
  MIC C. pyrenoidsa: 2.03
[1]; [23]
  MIC C. pyrenoidsa: 10.31
[1]; [18]
  MIC C. pyrenoidsa: 0.98
[2]; [21]
  MIC R. subcapitata: 2.03
[2]; [23]
  MIC R. subcapitata: 1.29
[2]; [18]
  MIC R. subcapitata: 0.98
[12]; [23]
  MIC S. aureus: 41.25
[13]; [21]
  MIC A. pullulans: 2.03
[4]; [21]
  MIC P. aeruginosa: 32.50
[4]; [23]
  MIC P. aeruginosa: 165.00
[4]; [18]
  MIC P. aeruginosa: 31.25
[5]; [21]
  MIC A. brasiliensis: 6.09
[5]; [18]
  MIC A. brasiliensis: 7.81
[6]; [18]
  MIC T. mentagrophytes: 0.49
[7]; [18]
  MIC S. epidermidis: 3.91
[8]; [18]
  MIC M. furfur: 1.95
[9]; [23]
  MIC C. albicans: 0.64
[9]; [18]
  MIC C. albicans: 3.91
[10]; [21]
  MIC P. faveolarum: 0.25
[10]; [23]
  MIC P. faveolarum: 1.93
[10]; [18]
  MIC P. faveolarum: 0.05
[11]; [21]
  MIC B. subtilis: 1.52
[11]; [23]
  MIC B. subtilis: 30.94
[11]; [18]
  MIC B. subtilis: 0.98
[14]; [23]
  MIC E. hirae: 20.63

## zinc pyrithione [ZPT]
[1]; [18]
  MIC C. pyrenoidsa: 0.24-4
[2]; [18]
  MIC R. subcapitata: 1.95-4
[3]
  MIC E. Coli: 1.95-7.81
[15]; 4 hr contact
  log reduction: 1 log
[15]; 8 hr contact
  log reduction: 2 log
[16]; 4 hr contact
  CFU: 7.3 × 10^6 CFUs/mL
  log reduction: 1 log
[16]; 8 hr contact
  CFU: 6.3 × 10^6 CFUs/mL
  log reduction: 2 log
[17]; 4 hr contact
  CFU: >10^7 CFUs/mL
  log reduction: 0 log
[17]; 8 hr contact
  CFU: >10^7 CFUs/mL
  log reduction: 0 log
[4]; [19]
  MIC P. aeruginosa: 31.25-62.5
[4]; [18]
  MIC P. aeruginosa: 31-62
[5]; [18]
  MIC A. brasiliensis: 7.81-15.6
[6]; [19]
  MIC T. mentagrophytes: 3.91-5
[6]; [18]
  MIC T. mentagrophytes: 3.91-8
[7]; [19]
  MIC S. epidermidis: 1.95-7.8
[7]; [18]
  MIC S. epidermidis: 1.95-7.8
[8]; [19]
  MIC M. furfur: 1.25-1.95
[8]; [18]
  MIC M. furfur: 0.98-4
[9]; [18]
  MIC C. albicans: 7.81
[10]; [18]
  MIC P. faveolarum: 0.05-2
[11]; [18]
  MIC B. subtilis: 1.95-4
